| Structure (SMILES) | melting point |
| --- | --- |
| O=C(Nc1cc2ccccc2cn1)c1ncccc1NCc1ccncc1 | 168 °C |
| O=C(O)COc1ccc(-c2nc3cnccc3[nH]2)c(O)c1 | 235 °C |
| COc1ccc2[nH]c(C(C)C)c(/C=C/C(=O)c3ccncc3)c2c1 | 252 to 253 °C |
| CC(C)N1CCN(Cc2ccc(NC(=O)c3cccc4cc(Oc5cc(N)ncn5)ccc34)cc2C(F)(F)F)CC1 | 185 to 189 °C |
| N#Cc1c(O)csc1N | 300 °C |
| Clc1ccc(-c2nc(Cl)nc(Cl)n2)c(Cl)c1 | 118 °C |
| COC1N=C(c2ccccc2Cl)c2cc(Cl)ccc2-c2c[nH]cc21 (configuration not stated) | 215 to 218 °C |
| CC(C)(C)OC(=O)NCC1Cc2ccc(CC(=O)O)cc2C1 (configuration not stated) | 123 to 124 °C |
| COc1cccc(-n2c(-c3sc(Nc4ccccc4)nc3C)nc3ccccc3c2=O)c1 | > 275 °C |
| O=C(O)COc1ccc(SCc2cccc(OCc3ccc(C(F)(F)F)cc3)c2)c2c1CCCO2 | 113 to 115 °C |
| CSc1nccc(-c2cc(C)ccc2NC(=O)C(C)(C)C)n1 | 119 to 120 °C |
| Cc1cc(C(Cc2ccc(CCCc3nc(-c4ccccc4)oc3C)cc2)C(=O)O)on1 (configuration not stated) | 133 to 135 °C |
| COCCn1nc(-c2sc(N)nc2-c2ccccc2)ccc1=O | 208 to 210 °C |
| CCCCCCCCCCCCNC(=S)NCCCCCCCCCCCC | 75 to 78 °C |
| Cc1ncc2c(n1)-c1ccccc1N(C(=O)c1ccc([N+](=O)[O-])cc1)CC2 | 211 to 212 °C |
| Cc1cc(C(N)=O)ncc1C(c1c(F)ccc(F)c1F)S(=O)(=O)CCC(Cl)(Cl)Cl (configuration not stated) | 173 to 175 °C |
| CCc1noc(-c2cn(-c3cccc(O)c3)cn2)n1 | 214 to 215 °C |
| NC(=O)c1nc(C2CC2)nc(NCc2ccco2)c1Cl | 126 to 128 °C |
| CCCCc1oc2ccccc2c1Cc1cc(Br)c(O[C@H](Cc2ccccc2)C(=O)O)c(Br)c1 | 225 to 226 °C |
| O=C(O)CCCc1c([N+](=O)[O-])cc(O)c(O)c1[N+](=O)[O-] | 165 to 170 °C |
| Cn1cnc(COc2nc3c(cc2C(C)(C)C)nnn3-c2cc(F)ccc2F)n1 | 154 to 157 °C |
| Cc1nc(-c2ccc(C#N)cc2)cn1-c1ccc(C#N)cc1 | 212 to 220 °C |
| CCc1c(C(C#N)c2cc(C)cc(C)c2)[nH]c(=O)[nH]c1=O (configuration not stated) | 105 to 107 °C |
| CCCC(=O)NCc1ccc(NC(=O)/C=C/c2cnn(C)c2-c2ccc(F)cc2)cc1 | 259 to 260 °C |
| COC(=O)c1sc(C(=O)OC)c(OC)c1N | 120 to 124 °C |
| C=CCc1c(O)c(=O)[nH]c2cc(Cl)ccc2c1=O | 172 to 174 °C |

| Structure (SMILES) | melting point |
| --- | --- |
| CCOC(C)O[C@H]1C(=O)N(C(=O)OC(C)(C)C)[C@H]1C=Cc1ccccc1 (some centres not stated) | 69 to 73 °C |
| Cc1cc(-c2cc(C(F)F)n3ncc(-c4nc(-c5ccc(N)nc5)no4)c3n2)ccc1Cl | 243 °C |
| CCOC(=O)c1nnc2ccc(NC(=O)OCc3ccccc3)cc2c1O | 250 to 252 °C |
| C[C@H](NC(=O)c1c(CN2CCNCC2)c(-c2ccccc2)nc2ccccc12)C1CCCCC1 | 116 to 118 °C |
| Cc1cc(C#N)cc(C(=O)c2c(C(C)C)c(=O)[nH]c(=O)n2CC2(CC(N)=O)CC2)c1 | 283 to 285 °C |
| CCOC(=O)c1cc(Cl)c(N)c2c1OCCO2 | 105 to 106 °C |
| COC(=O)CCCC(=O)Nc1cccc(Br)n1 | 128 to 131 °C |
| Clc1cccc(-c2n[nH]cc2-c2ccnc(NCCc3ccccc3)c2)c1 | 185 to 186 °C |
| CSCc1cc(O)cc2cc(-c3ccc(O)cc3)oc12 | 188 to 190 °C |
| Cc1ccc(C#N)c2c([N+](=O)[O-])ccc(Cl)c12 | 179 to 180 °C |
| CCCc1cc(Cl)c2oc(-c3ccccc3)c(C)c2c1OC(C)=O | 86 to 87 °C |
| Cc1nc(-c2ccc(C(=O)N3CCN(S(=O)(=O)c4ccc5cc(Br)ccc5c4)CC3)cc2)c[nH]1 | 215 to 216 °C |
| COc1ccc(S(=O)(=O)c2ccccn2)cc1 | 112 °C |
| CN(Cc1cccc(-c2ccc(CC3SC(=O)NC3=O)cc2)c1)C(=O)c1ccc2cc(O)ccc2c1 (configuration not stated) | 218 °C |
| CCCC(=O)N(Cc1ccc(Cl)cc1Cl)c1c(NC(C)(C)CC)c(=O)c1=O | 112 to 117 °C |
| COCCOC(=O)C1=C(C(F)F)NC(C)=C(C(=O)OC(C)C)C1c1cccc([N+](=O)[O-])c1 (configuration not stated) | 146 to 147 °C |
| CC(C)(F)c1cnn2c(-c3ccc(F)c(-c4c(F)cccc4C#N)c3)cnc2n1 | 187 to 188 °C |
| C1=C(c2c[nH]c3ccccc23)CN(Cc2ccccc2)CC1 | 105 to 107 °C |
| CCOC(=O)/C(C)=C/c1ccc(Br)cc1 | 82 °C |
| CCOC(=O)C(=O)CCc1ccccc1 | 126 to 127 °C |
| CNCC(=O)N[C@@H](CCCNC(=N)N)C(=O)N[C@@H](CCCNC(=N)N)C(=O)N[C@@H](C)P(=O)(O)O | 220 °C |
| CC(=O)Cc1ccc(OCc2ccc(Cl)cc2)cc1 | 76 to 80 °C |
| CC(C)c1cccc(C(C)C)c1NC(=O)NCC1(SCc2ccccc2)CCCCC1 | 156 °C |
| COc1cc([N+](=O)[O-])ccc1S(=O)(=O)Nc1ccc(C)cc1 | 126 to 129 °C |
| CCN1CCNC(=O)c2ccc(Nc3ncc(Cl)c(Nc4ccccc4-c4nccn4C)n3)cc21 | 143 to 151 °C |
| CON=C(C1=Nc2ccc(Cl)cc2C(c2ccccc2F)=NC1)[N+](=O)[O-] | 130 to 133 °C |

| Structure (SMILES) | melting point |
| --- | --- |
| CCCCc1nc2ccccc2n1CCC(=O)O | 177 to 178 °C |
| CN(CCCN)S(=O)(=O)CCC(F)(F)C(F)(F)C(F)(F)C(F)(F)C(F)(F)C(F)(F)F | 135 °C |
| COCCCNC(=O)C(C)(C(C)C)C(C)C | 10 °C |
| Cc1nc(N)c(C(N)=S)s1 | 209 to 213 °C |
| Clc1ccc(N2CCN=C2C(Cn2cncn2)c2ccccc2)c(Cl)c1 (configuration not stated) | 78 to 82 °C |
| CN1CCN(C2Cc3ccc(Cl)cc3Sc3cc(F)ccc32)CC1 (configuration not stated) | 156 to 158 °C |
| COc1ccc(-c2ccc3c(C(=O)O)cccc3c2)cc1C12CC3CC(CC(C3)C1)C2 | 222 °C |
| C=C1CC2(CN3CCC2CC3)SC1C (configuration not stated) | 164 to 168 °C |
| O=C1NC(=O)C2(CCOC2)N1 (configuration not stated) | 202 to 204 °C |
| CCOC(=O)c1c(C(C)C)nc2onc(C)c2c1-c1ccc(F)cc1 | 90 to 110 °C |
| CCOc1ccc(-c2nc(Cn3cccc3C(C)=O)cs2)cc1OCC | 123 to 124 °C |
| C=CCC1=C(O)C(C)=CC(C)(OC(C)=O)C1C (configuration not stated) | 117 to 118 °C |
| CC(=O)N1CCCCc2ccc(/C=C/CN(C)C)cc21 | 87 to 88 °C |
| CC(O)CNc1c([N+](=O)[O-])cnc2ccccc12 (configuration not stated) | 209 to 210 °C |
| COc1cc(N)c(Cl)cc1C(=O)NC1CCN(CCNC(=O)C(CO)c2ccccc2)CC1OC (configuration not stated) | 114 °C |
| Nc1nc2ccc(OC(F)(F)F)c([N+](=O)[O-])c2s1 | 180 °C |
| Cc1cc(-c2nc3cccnn3c2-c2ccnc(NC(=O)c3ccc(OC(F)(F)F)cc3)c2)ccc1F | 225 to 226 °C |
| COCC1=C(C)C(=O)C(OC)=C(OC)C1=O | 31 to 36 °C |
| CC(C)(C)OC(=O)N=C(NC(=O)OC(C)(C)C)N1CCCC1 | 88 to 91 °C |
| COCCc1nc2c(N)nc3ccccc3c2n1CCOCCNC(=O)N1CCOCC1 | 164 to 166 °C |
| CC(=O)c1cc(CC(C)O)c(OCCCCC#N)cc1O (configuration not stated) | 86 to 88 °C |
| CN(C#N)c1ccc(OCc2ccccc2)cc1 | 116 °C |
| CCn1c(=O)c2c(nc(/C=C/c3ccc4c(c3)OCCO4)n2C)n(CC)c1=O | 233 to 234 °C |
| Cc1nc2c(N)nc3cccnc3c2n1CC(C)C | 228 to 230 °C |
| CCCc1nc2c(N)nc3cc(Br)ccc3c2n1CCCONC(=O)C(C)C | 176 to 178 °C |
| Cc1[nH]cnc1C(=O)OCc1ccccc1 | 203 to 205 °C |

| Structure (SMILES) | melting point |
| --- | --- |
| Cc1ccc(-c2ccc3c(c2)C=C(C(=O)Nc2ccc(-c4ccccn4)cc2)CCO3)cc1 | 228 to 229 °C |
| CCOC(=O)c1cccc(NC(=O)c2cc(-c3ccc(F)cc3)oc2C)c1 | 171 to 172 °C |
| CC1(C)C(=O)Nc2cc3[nH]c(-c4c[nH]c5ccccc45)nc3cc21 | 243 to 245 °C |
| COc1ccc(-c2nc(C(=O)c3ccc(F)cc3)c[nH]2)cc1 | 245 to 247 °C |
| Cc1oc(-c2ccco2)nc1COc1ccc(CO)cn1 | 120 to 121 °C |
| Cc1ccc(CN(c2ccccc2CC(=O)O)c2c(Cl)cccc2Cl)cc1 | 154 to 158 °C |
| O=C(C=C1OC(=O)c2ccccc21)c1ccccc1 | 105 °C |
| CCCCCc1nc2cnc3ccccc3c2[nH]1 | 142 to 143 °C |
| Cc1cccc(-c2nc(-c3ccc(S(C)=O)cc3)sc2-c2cc(C)nc(C)c2)c1 (configuration not stated) | 133 to 134 °C |
| CCCc1nc2c(N)nc(C)c(C)c2n1CCCCCS(=O)(=O)c1ccccc1 | 134 to 136 °C |
| CC(C)c1sc(C(O)(C(F)(F)F)C(F)(F)F)nc1-c1ccc(S(C)(=O)=O)cc1 | 122 to 123 °C |
| O=C1c2ccc(N3CCCCC3)cc2C(=O)c2cc3ccccc3cc21 | 230 to 233 °C |
| O=C(O)CCCCCCCn1cc(-c2ccccc2)c(-c2ccccc2)nc1=O | 121 to 123 °C |
| C[Si](C)(C)/C=C/c1c(N)nc(C2CC2)nc1C(=O)O | 146 to 149 °C |
| NC(=O)c1ccc(N2CCN(Cc3cn4cc(Cl)cc(Cl)c4n3)CC2)cc1 | 234 to 235 °C |
| CC(C)c1cc(-c2ccncc2)c(-c2ccc(F)cc2)n1CCC1CC(O)CC(=O)O1 (configuration not stated) | 174 to 176 °C |
| COc1nnc2n1C=Cc1ccccc1C2 | 160 to 161 °C |
| O=C(Nc1ccncc1)c1ccc(-c2ccc3nnn(Cc4ccc5ncccc5c4)c3n2)cc1F | 217 to 219 °C |
| COC1=NS(=O)(=O)N=C1NCCCCC#CCN(C)C | 172 to 174 °C |
| CCOC(=O)Cc1c2c(nn1-c1ccccc1)c(=O)[nH]c1ccccc12 | 301 to 303 °C |
| C=CCSc1cc(C(=O)O)cc(S(=O)(=O)Cl)c1Oc1ccccc1 | 160 to 162 °C |
| O=C(CBr)c1ccc(-c2ccc([N+](=O)[O-])cc2)o1 | 153 to 162 °C |
| CSC(C(N)=O)c1cc(Cl)cc(C(=O)c2ccccc2)c1N (configuration not stated) | 174 °C |
| c1ccc(Cn2c(-c3ccc4c(c3)OCCO4)nc3cccnc32)cc1 | 156 to 158 °C |

Source: a melting point compilation (Tetko et al.; mined from patent text by program, amines drawn as free bases though some values may be those of a salt)
